Results reported in ChEMBL document CHEMBL1157288, “Isolation and structure assignment of an iminotetrasaccharide from a cultured filamentous cyanobacterium Anabaena sp” (J Nat Prod, 2006).

Tested on: Escherichia coli
Assay: Inhibition of Escherichia coli beta-glucuronidase at 560 uM

CO[C@@H]1[C@@H](O)[C@@H](O[C@@H]2[C@@H]([C@H](C)O)NC[C@@H]2O)O[C@H](CO)[C@H]1O[C@H]1OC[C@H](OC(C)=O)[C@H](OC(C)=O)[C@H]1O[C@H]1O[C@H](C(=O)O)[C@@H](O)[C@H](O)[C@H]1O
inhibition: 50%
